Laboratory results from ChEMBL document CHEMBL3112450, “Synthesis and in vitro antitumor evaluation of primary amine substituted quinazoline linked benzimidazole” (Bioorg Med Chem Lett, 2014).

Legend:
Type in all cases: functional
MDA-MB-231 = experiment: Cytotoxicity against human MDA-MB-231 cells assessed as growth inhibition at 10 uM after 48 hrs by SRB assay; conditions: MDA-MB-231, 48 h, read-out: GI
NCI-H322M = experiment: Cytotoxicity against human NCI-H322M cells assessed as cell growth at 10^-8 M after 48 hrs by SRB assay; conditions: read-out: Activity
MDA-MB-435 [1] = experiment: Cytotoxicity against human MDA-MB-435 cells assessed as cell growth at 10^-7 M after 48 hrs by SRB assay; conditions: MDA-MB-435, 48 h, read-out: Activity
ACHN = experiment: Cytotoxicity against human ACHN cells assessed as cell growth at 10^-4 M after 48 hrs by SRB assay; conditions: read-out: Activity
HOP-62 = experiment: Cytotoxicity against human HOP62 cells assessed as cell growth at 10^-6 M after 48 hrs by SRB assay; conditions: HOP-62, 48 h, read-out: Activity
U-251 = experiment: Cytotoxicity against human U251 cells assessed as cell growth at 10^-6 M after 48 hrs by SRB assay; conditions: U-251, 48 h, read-out: Activity
SK-MEL-28 [2] = experiment: Cytotoxicity against human SK-MEL-28 cells after 48 hrs by SRB assay; conditions: SK-MEL-28, 48 h
SK-MEL-5 = experiment: Cytotoxicity against human SK-MEL-5 cells assessed as cell growth at 10^-4 M after 48 hrs by SRB assay; conditions: SK-MEL-5, 48 h, read-out: Activity
SK-MEL-28 [3] = experiment: Cytotoxicity against human SK-MEL-28 cells assessed as cell growth at 10^-8 M after 48 hrs by SRB assay; conditions: SK-MEL-28, 48 h, read-out: Activity
NCI-H23 = experiment: Cytotoxicity against human NCI-H23 cells after 48 hrs by SRB assay; conditions: NCI-H23, 48 h
TK-10 = experiment: Cytotoxicity against human TK10 cells after 48 hrs by SRB assay; conditions: TK-10, 48 h
SF-295 = experiment: Cytotoxicity against human SF295 cells assessed as cell growth at 10^-7 M after 48 hrs by SRB assay; conditions: SF-295, 48 h, read-out: Activity
HCT-15 = experiment: Cytotoxicity against human HCT15 cells assessed as cell growth at 10^-4 M after 48 hrs by SRB assay; conditions: HCT-15, 48 h, read-out: Activity
RXF 393 = experiment: Cytotoxicity against human RXF393 cells assessed as cell growth at 10^-8 M after 48 hrs by SRB assay; conditions: RXF 393, 48 h, read-out: Activity
OVCAR-3 = experiment: Cytotoxicity against human OVCAR3 cells assessed as cell growth at 10^-8 M after 48 hrs by SRB assay; conditions: OVCAR-3, 48 h, read-out: Activity
[4] = Cytotoxicity against human UO31 cells assessed as cell growth at 10^-6 M after 48 hrs by SRB assay; conditions: UO-31, 48 h, read-out: Activity
NCI-H226 [5] = experiment: Cytotoxicity against human NCI-H226 cells assessed as cell growth at 10^-7 M after 48 hrs by SRB assay; conditions: NCI-H226, 48 h, read-out: Activity
NCI-H522 = experiment: Cytotoxicity against human NCI-H522 cells assessed as cell growth at 10^-4 M after 48 hrs by SRB assay; conditions: NCI-H522, 48 h, read-out: Activity
HCT-116 = experiment: Cytotoxicity against human HCT116 cells assessed as cell growth at 10^-4 M after 48 hrs by SRB assay; conditions: HCT-116, 48 h, read-out: Activity
DU-145 = experiment: Cytotoxicity against human DU145 cells assessed as cell growth at 10^-6 M after 48 hrs by SRB assay; conditions: DU-145, 48 h, read-out: Activity
MDA-MB-435 [6] = experiment: Cytotoxicity against human MDA-MB-435 cells assessed as cell growth at 10^-6 M after 48 hrs by SRB assay; conditions: MDA-MB-435, 48 h, read-out: Activity
OVCAR-8 = experiment: Cytotoxicity against human OVCAR8 cells after 48 hrs by SRB assay; conditions: OVCAR-8, 48 h
[7] = Cytotoxicity against human OVCAR5 cells assessed as cell growth at 10^-4 M after 48 hrs by SRB assay; conditions: OVCAR-5, 48 h, read-out: Activity
[8] = Cytotoxicity against human OVCAR5 cells assessed as cell growth at 10^-7 M after 48 hrs by SRB assay; conditions: OVCAR-5, 48 h, read-out: Activity
M14 = experiment: Cytotoxicity against human M14 cells after 48 hrs by SRB assay; conditions: M14, 48 h
CCRF-CEM = experiment: Cytotoxicity against human CCRF-CEM cells after 48 hrs by SRB assay
[9] = Cytotoxicity against human UO31 cells after 48 hrs by SRB assay; conditions: UO-31, 48 h
BT-549 [10] = experiment: Cytotoxicity against human BT549 cells assessed as cell growth at 10^-8 M after 48 hrs by SRB assay; conditions: BT-549, 48 h, read-out: Activity
BT-549 [11] = experiment: Cytotoxicity against human BT549 cells after 48 hrs by SRB assay; conditions: BT-549, 48 h
K562 = experiment: Cytotoxicity against human K562 cells after 48 hrs by SRB assay; conditions: K562, 48 h
[12] = Cytotoxicity against human OVCAR4 cells assessed as cell growth at 10^-4 M after 48 hrs by SRB assay; conditions: OVCAR-4, 48 h, read-out: Activity
SK-MEL-28 [13] = experiment: Cytotoxicity against human SK-MEL-28 cells assessed as cell growth at 10^-6 M after 48 hrs by SRB assay; conditions: SK-MEL-28, 48 h, read-out: Activity
MCF7 = experiment: Cytotoxicity against human MCF7 cells after 48 hrs by SRB assay; conditions: MCF7, 48 h
NCI-H226 [14] = experiment: Cytotoxicity against human NCI-H226 cells assessed as cell growth at 10^-4 M after 48 hrs by SRB assay; conditions: NCI-H226, 48 h, read-out: Activity
UACC-62 = experiment: Cytotoxicity against human UACC62 cells assessed as cell growth at 10^-7 M after 48 hrs by SRB assay; conditions: UACC-62, 48 h, read-out: Activity
SR = experiment: Cytotoxicity against human SR cells assessed as cell growth at 10^-6 M after 48 hrs by SRB assay; conditions: read-out: Activity
SF-539 = experiment: Cytotoxicity against human SF539 cells assessed as cell growth at 10^-8 M after 48 hrs by SRB assay; conditions: SF-539, 48 h, read-out: Activity

**Q.** Which inhibition of growth at 10 µM (MDA-MB-231) does the source give for C=CCn1c(C)nc2cc(Nc3nc(NCCO)nc4ccccc34)ccc21 here?
**A.** Its inhibition of growth at 10 µM is 30%.

**Q.** For C=CCn1c(C)nc2cc(Nc3nc(Nc4ccc5nc(C)n(CC=C)c5c4)c4ccccc4n3)ccc21, which growth at 0.01 µM (NCI-H322M) is on record?
**A.** Its growth at 0.01 µM is 92%.

**Q.** What about the growth at 0.1 µM (MDA-MB-435 [1]) of the same molecule?
**A.** The growth at 0.1 µM was 97%.

**Q.** What about the growth at 100 µM (ACHN) of the same molecule?
**A.** The growth at 100 µM was -38%.

**Q.** What about the growth at 1 µM (HOP-62) of the same molecule?
**A.** The growth at 1 µM was -34%.

**Q.** What about the growth at 1 µM (U-251) of the same molecule?
**A.** Its growth at 1 µM is -88%.

**Q.** And the GI50 (SK-MEL-28 [2])?
**A.** Its GI50 is 2020 nM.

**Q.** And the TGI (SK-MEL-28 [2])?
**A.** Its TGI is 3860 nM.

**Q.** And the growth at 100 µM (SK-MEL-5)?
**A.** Its growth at 100 µM is -37%.

**Q.** What about the growth at 0.01 µM (SK-MEL-28 [3]) of the same molecule?
**A.** The growth at 0.01 µM was 108%.

**Q.** And the GI50 (NCI-H23)?
**A.** The GI50 was 2050 nM.

**Q.** What about the TGI (NCI-H23) of the same molecule?
**A.** Its TGI is 4200 nM.

**Q.** And the GI50 (TK-10)?
**A.** Its GI50 is 522 nM.

**Q.** And the LC50 (TK-10)?
**A.** Its LC50 is 4130 nM.

**Q.** What about the TGI (TK-10) of the same molecule?
**A.** The TGI was 1710 nM.

**Q.** What about the growth at 0.1 µM (SF-295) of the same molecule?
**A.** The growth at 0.1 µM was 93%.

**Q.** And the growth at 100 µM (HCT-15)?
**A.** The growth at 100 µM was 2%.

**Q.** What about the growth at 0.01 µM (RXF 393) of the same molecule?
**A.** Its growth at 0.01 µM is 101%.

**Q.** And the growth at 0.01 µM (OVCAR-3)?
**A.** Its growth at 0.01 µM is 100%.

**Q.** What about the growth at 1 µM [4] of the same molecule?
**A.** The growth at 1 µM was 72%.

**Q.** What about the growth at 0.1 µM (NCI-H226 [5]) of the same molecule?
**A.** The growth at 0.1 µM was 82%.

**Q.** What about the growth at 100 µM (NCI-H522) of the same molecule?
**A.** The growth at 100 µM was -24%.

**Q.** What about the growth at 100 µM (HCT-116) of the same molecule?
**A.** The growth at 100 µM was 3%.

**Q.** And the growth at 1 µM (DU-145)?
**A.** The growth at 1 µM was 18%.

**Q.** And the growth at 1 µM (MDA-MB-435 [6])?
**A.** Its growth at 1 µM is 32%.

**Q.** What about the GI50 (OVCAR-8) of the same molecule?
**A.** The GI50 was 284 nM.

**Q.** What about the LC50 (OVCAR-8) of the same molecule?
**A.** The LC50 was > 100000 nM.

**Q.** And the growth at 100 µM [7]?
**A.** Its growth at 100 µM is -44%.

**Q.** What about the growth at 0.1 µM [8] of the same molecule?
**A.** The growth at 0.1 µM was 95%.

**Q.** And the GI50 (M14)?
**A.** The GI50 was 1430 nM.

**Q.** What about the TGI (M14) of the same molecule?
**A.** The TGI was 3240 nM.

**Q.** And the GI50 (CCRF-CEM)?
**A.** Its GI50 is 296 nM.

**Q.** What about the LC50 (CCRF-CEM) of the same molecule?
**A.** Its LC50 is > 100000 nM.

**Q.** What about the TGI (CCRF-CEM) of the same molecule?
**A.** The TGI was 769 nM.

**Q.** And the GI50 [9]?
**A.** Its GI50 is 1340 nM.

**Q.** What about the LC50 (concentration causing 50% net cell kill) [9] of the same molecule?
**A.** The LC50 (concentration causing 50% net cell kill) was 5170 nM.

**Q.** What about the TGI [9] of the same molecule?
**A.** The TGI was 2630 nM.

**Q.** And the growth at 0.01 µM (BT-549 [10])?
**A.** Its growth at 0.01 µM is 100%.

**Q.** And the GI50 (BT-549 [11])?
**A.** The GI50 was 1680 nM.

**Q.** And the TGI (BT-549 [11])?
**A.** The TGI was 3100 nM.

**Q.** What about the GI50 (K562) of the same molecule?
**A.** The GI50 was 218 nM.

**Q.** What about the growth at 100 µM [12] of the same molecule?
**A.** The growth at 100 µM was -29%.

**Q.** What about the growth at 1 µM (SK-MEL-28 [13]) of the same molecule?
**A.** The growth at 1 µM was 104%.

**Q.** And the GI50 (MCF7)?
**A.** The GI50 was 209 nM.

**Q.** And the growth at 100 µM (NCI-H226 [14])?
**A.** Its growth at 100 µM is -12%.

**Q.** And the growth at 0.1 µM (UACC-62)?
**A.** Its growth at 0.1 µM is 98%.

**Q.** And the growth at 1 µM (SR)?
**A.** Its growth at 1 µM is -23%.

**Q.** And the growth at 0.01 µM (SF-539)?
**A.** Its growth at 0.01 µM is 96%.
